From the NIST ThermoML archive (doi:10.1021/je900400v) come the findings set out here.

± gives the expanded uncertainty stated by the source.

For this series the following is noted: Liquid, Closed cell (Static) method.

A word on the vapor or sublimation pressure: it is the pressure of vapour in equilibrium with the condensed phase. Turning to `FC(F)(F)C1(F)OC1(F)F` (centres undefined) [2,2,3-trifluoro-3-(trifluoromethyl)oxirane], the “vapor or sublimation pressure” value reads like this: (271.88 K) 302.2 ± 1.5 kPa; (295.53 K) 649.9 ± 2.1 kPa; (300.47 K) 745.6 ± 2.2 kPa; (303.11 K) 798.5 ± 2.3 kPa; (306.5 K) 874.7 ± 2.5 kPa; (310.48 K) 970.1 ± 2.7 kPa. Besides, the “vapor or sublimation pressure” value (312.64 K) is reported as 1024.9 ± 2.9 kPa and the “vapor or sublimation pressure” value (318.16 K) came to 1175.3 ± 3.1 kPa.
Turning to `FC(F)=C(F)C(F)(F)F` [hexafluoropropene], the “vapor or sublimation pressure” value is on record as 327.1 ± 1.4 kPa (272.33 K); 420.7 ± 1.7 kPa (279.64 K); 763.3 ± 2.2 kPa (299.34 K); 825.7 ± 2.4 kPa (302.24 K); 1077.3 ± 2.8 kPa (312.33 K); 1232.1 ± 3.1 kPa (317.63 K).
